The values below come from ChEMBL document CHEMBL2062394, “Azide-alkyne cycloaddition en route to novel 1H-1,2,3-triazole tethered isatin conjugates with in vitro cytotoxic evaluation” (Eur J Med Chem, 2012).

By IC50 is commonly meant the concentration needed to halve the response being measured.

The test system of experiment [1] is Caco-2. Kind of experiment: Growth inhibition of human Caco2 cells at 50 uM after 48 hrs by SRB assay. The settings on record: Caco-2, 48 h, read-out: GI. It counts as functional. On the technique in general: Sulforhodamine B stains cellular protein and so reports cell mass.
Experiment [2] has as its system PC-3. The experiment in a line: Growth inhibition of human PC3 cells at 10 uM after 48 hrs by SRB assay. It counts as functional. The settings on record: PC-3, 48 h, read-out: GI.
Experiment [3] relates to A549. The experiment in a line: Growth inhibition of human A549 cells at 50 uM after 48 hrs by SRB assay. The settings on record: A549, 48 h, read-out: GI. Type of experiment: functional.
For experiment [4], the system named is THP-1. The experiment in a line: Growth inhibition of human THP1 cells after 48 hrs by SRB assay. It counts as functional, cell-based. Conditions: for IC50: THP-1, 48 h.
The subject of experiment [5] is Caco-2. Kind of experiment: Growth inhibition of human Caco2 cells after 48 hrs by SRB assay. It counts as functional, cell-based. The settings on record: for IC50: Caco-2, 48 h.
Experiment [6] deals with PC-3. Kind of experiment: Growth inhibition of human PC3 cells at 50 uM after 48 hrs by SRB assay. Type of experiment: functional. Conditions: PC-3, 48 h, read-out: GI.
The subject of experiment [7] is PC-3. The experiment in a line: Growth inhibition of human PC3 cells after 48 hrs by SRB assay. Type of experiment: functional, cell-based. Conditions: for IC50: PC-3, 48 h.
In experiment [8] the test system is A549. The experiment in a line: Growth inhibition of human A549 cells at 100 uM after 48 hrs by SRB assay. Type of experiment: functional. Conditions: A549, 48 h, read-out: GI.
Experiment [9] has as its system THP-1. The experiment in a line: Growth inhibition of human THP1 cells at 10 uM after 48 hrs by SRB assay. Type of experiment: functional. Conditions: THP-1, 48 h, read-out: GI.
The subject of experiment [10] is A549. The experiment in a line: Growth inhibition of human A549 cells after 48 hrs by SRB assay. The settings on record: for IC50: A549, 48 h. Type of experiment: functional, cell-based.
Experiment [11] deals with Caco-2. Kind of experiment: Growth inhibition of human Caco2 cells at 10 uM after 48 hrs by SRB assay. It counts as functional. Conditions: Caco-2, 48 h, read-out: GI.
Experiment [12] concerns PC-3. Kind of experiment: Growth inhibition of human PC3 cells at 100 uM after 48 hrs by SRB assay. Type of experiment: functional. Conditions: PC-3, 48 h, read-out: GI.
The subject of experiment [13] is Caco-2. Kind of experiment: Growth inhibition of human Caco2 cells at 100 uM after 48 hrs by SRB assay. The settings on record: Caco-2, 48 h, read-out: GI. It counts as functional.
Experiment [14] has as its system THP-1. The experiment in a line: Growth inhibition of human THP1 cells at 50 uM after 48 hrs by SRB assay. Conditions: THP-1, 48 h, read-out: GI. It counts as functional.
The test system of experiment [15] is THP-1. The experiment in a line: Growth inhibition of human THP1 cells at 100 uM after 48 hrs by SRB assay. Type of experiment: functional. Conditions: THP-1, 48 h, read-out: GI.
Experiment [16] concerns A549. The experiment in a line: Growth inhibition of human A549 cells at 10 uM after 48 hrs by SRB assay. Type of experiment: functional. The settings on record: A549, 48 h, read-out: GI.

Some results are limits rather than exact numbers.

In the case of `O=C1C(=O)N(CCn2cc(CN3C(=O)C(=O)c4cc([N+](=O)[O-])ccc43)nn2)c2ccccc21`, the inhibition of growth at 50 µM was found to be 4% in the experiment with Caco-2 [1], 96% with A549 [3], 97% in the experiment on PC-3 [6] and 97% in the experiment on THP-1 [14]. Moreover, the inhibition of growth at 10 µM with PC-3 [2] worked out at 24%; in the experiment on THP-1 [9] it was 11%; in the experiment on Caco-2 [11] it was 0%; in the experiment with A549 [16], 13%. Moreover, the “growth inhibition (GI)” value with THP-1 [4], in the experiment on Caco-2 [5], with PC-3 [7] and in the experiment on A549 [10] was “Dose-dependent effect” in each case. Moreover, the concentration for half-maximal inhibition (IC50) with THP-1 [4] was 42.8 µM; in the experiment on Caco-2 [5] it was above 100 µM; in the experiment on PC-3 [7], 30.7 µM; in the experiment on A549 [10], 39.2 µM. Besides, the inhibition of growth at 100 µM with A549 [8] came out at 98%; in the experiment on PC-3 [12], 99%; in the experiment on Caco-2 [13], 18%; in the experiment with THP-1 [15], 100%.

Turning to `O=C1C(=O)N(CCn2cc(CN3C(=O)C(=O)c4cc(Cl)ccc43)nn2)c2ccc(F)cc21`, the inhibition of growth at 50 µM stood at 12% in the experiment with Caco-2 [1], 73% in the experiment with A549 [3], 4% with PC-3 [6] and 70% in the experiment on THP-1 [14]. For the same compound, the inhibition of growth at 10 µM in the experiment on PC-3 [2] was found to be 0%; with THP-1 [9], 20%; with Caco-2 [11], 2%; in the experiment on A549 [16] it was 64%. Besides, the “growth inhibition (GI)” value in the experiment on THP-1 [4], in the experiment with Caco-2 [5], with PC-3 [7] and in the experiment with A549 [10] was “Dose-dependent effect” each time. For the same compound, the IC50 with THP-1 [4] was 36.3 µM; in the experiment with Caco-2 [5], above 100 µM; with PC-3 [7], above 100 µM; in the experiment on A549 [10], 2.65 µM. Further, the inhibition of growth at 100 µM in the experiment on A549 [8] came out at 97%; in the experiment on PC-3 [12], 9%; in the experiment on Caco-2 [13] it was 30%; in the experiment on THP-1 [15], 92%.

As to `O=C1C(=O)N(CCn2cc(CN3C(=O)C(=O)c4cc(Br)ccc43)nn2)c2ccc(F)cc21`, the inhibition of growth at 50 µM in the experiment on Caco-2 [1] came to 7%; in the experiment with A549 [3] it was 79%; in the experiment on PC-3 [6], 2%; in the experiment on THP-1 [14], 85%. In addition, the inhibition of growth at 10 µM in the experiment on PC-3 [2] stood at 0%; in the experiment on THP-1 [9], 26%; in the experiment on Caco-2 [11], 0%; in the experiment on A549 [16], 41%. Also, the “growth inhibition (GI)” value in the experiment on THP-1 [4], in the experiment with Caco-2 [5], in the experiment on PC-3 [7] and in the experiment on A549 [10] was “Dose-dependent effect” throughout. Also, the half-maximal inhibitory concentration (IC50) in the experiment with THP-1 [4] is 27.6 µM; with Caco-2 [5] it was above 100 µM; in the experiment on PC-3 [7] it was above 100 µM; in the experiment with A549 [10], 16.4 µM. Besides, the inhibition of growth at 100 µM was 98% in the experiment on A549 [8], 51% with PC-3 [12], 13% with Caco-2 [13] and 94% in the experiment on THP-1 [15].

For `O=C1C(=O)N(CCn2cc(CN3C(=O)C(=O)c4cc(F)ccc43)nn2)c2ccc(F)cc21`, the inhibition of growth at 50 µM is 0% in the experiment with Caco-2 [1], 23% in the experiment on A549 [3], 10% with PC-3 [6] and 13% in the experiment on THP-1 [14]. For the same compound, the inhibition of growth at 10 µM in the experiment with PC-3 [2] came out at 0%; in the experiment with THP-1 [9], 1%; in the experiment with Caco-2 [11] it was 0%; with A549 [16] it was 5%. Moreover, the “growth inhibition (GI)” value in the experiment on THP-1 [4], in the experiment on Caco-2 [5], in the experiment with PC-3 [7] and in the experiment on A549 [10] was “Dose-dependent effect” each time. Besides, the IC50 with THP-1 [4] was 83.3 µM; in the experiment with Caco-2 [5], above 100 µM; with PC-3 [7], above 100 µM; in the experiment with A549 [10] it was 90.7 µM. Further, the inhibition of growth at 100 µM with A549 [8] turned out to be 62%; in the experiment with PC-3 [12], 30%; with Caco-2 [13], 10%; in the experiment on THP-1 [15], 92%.

For the compound `O=C1C(=O)N(CCn2cc(CN3C(=O)C(=O)c4cc([N+](=O)[O-])ccc43)nn2)c2ccc(Cl)cc21`, the inhibition of growth at 50 µM with Caco-2 [1] came out at 21%; in the experiment with A549 [3], 80%; with PC-3 [6], 44%; in the experiment with THP-1 [14], 82%. In addition, the inhibition of growth at 10 µM with PC-3 [2] stood at 30%; with THP-1 [9], 29%; in the experiment on Caco-2 [11], 17%; with A549 [16], 11%. In addition, the “growth inhibition (GI)” value with THP-1 [4], in the experiment with Caco-2 [5], with PC-3 [7] and in the experiment on A549 [10] was “Dose-dependent effect” each time. The IC50 with THP-1 [4] was 26 µM; in the experiment on Caco-2 [5], above 100 µM; in the experiment on PC-3 [7] it was 53.2 µM; in the experiment on A549 [10] it was 39.3 µM. In addition, the inhibition of growth at 100 µM stood at 99% in the experiment on A549 [8], 72% in the experiment on PC-3 [12], 33% in the experiment on Caco-2 [13] and 88% with THP-1 [15].

Turning to `O=C1C(=O)N(CCn2cc(CN3C(=O)C(=O)c4cc([N+](=O)[O-])ccc43)nn2)c2ccc(F)cc21`, the inhibition of growth at 50 µM was determined as 0% with Caco-2 [1], 22% with A549 [3], 11% in the experiment with PC-3 [6] and 14% with THP-1 [14]. Moreover, the inhibition of growth at 10 µM was found to be 2% in the experiment on PC-3 [2], 2% in the experiment on THP-1 [9], 0% in the experiment with Caco-2 [11] and 7% in the experiment on A549 [16]. Also, the “growth inhibition (GI)” value in the experiment with THP-1 [4], in the experiment on Caco-2 [5], in the experiment on PC-3 [7] and with A549 [10] was “Dose-dependent effect” throughout. Moreover, the concentration for half-maximal inhibition (IC50) with THP-1 [4] is 86.2 µM; in the experiment on Caco-2 [5], above 100 µM; with PC-3 [7], 95.2 µM; with A549 [10], 93.2 µM. Moreover, the inhibition of growth at 100 µM is 64% in the experiment with A549 [8], 33% with PC-3 [12], 0% in the experiment on Caco-2 [13] and 90% in the experiment with THP-1 [15].

Turning to `Cc1ccc2c(c1)C(=O)C(=O)N2Cc1cn(CCN2C(=O)C(=O)c3cc(F)ccc32)nn1`, the inhibition of growth at 50 µM with Caco-2 [1] is 15%; with A549 [3], 57%; with PC-3 [6], 31%; with THP-1 [14] it was 88%. For the same compound, the inhibition of growth at 10 µM came out at 0% with PC-3 [2], 14% in the experiment on THP-1 [9], 0% with Caco-2 [11] and 8% in the experiment on A549 [16]. For the same compound, the “growth inhibition (GI)” value in the experiment on THP-1 [4], in the experiment on Caco-2 [5], in the experiment with PC-3 [7] and in the experiment with A549 [10] was “Dose-dependent effect” in each case. The IC50 in the experiment on THP-1 [4] was 38.8 µM; with Caco-2 [5], above 100 µM; with PC-3 [7], 85.2 µM; in the experiment with A549 [10], 49.9 µM. Besides, the inhibition of growth at 100 µM in the experiment on A549 [8] is 99%; with PC-3 [12], 48%; with Caco-2 [13], 44%; in the experiment with THP-1 [15] it was 89%.

Consider `O=C1C(=O)N(CCn2cc(CN3C(=O)C(=O)c4cc(Br)ccc43)nn2)c2ccc(Cl)cc21`, for which the inhibition of growth at 50 µM in the experiment on Caco-2 [1] stood at 57%; with A549 [3] it was 83%; with PC-3 [6], 43%; with THP-1 [14] it was 82%. For the same compound, the inhibition of growth at 10 µM turned out to be 29% in the experiment on PC-3 [2], 28% in the experiment on THP-1 [9], 36% in the experiment with Caco-2 [11] and 10% with A549 [16]. For the same compound, the “growth inhibition (GI)” value in the experiment with THP-1 [4], in the experiment on Caco-2 [5], with PC-3 [7] and in the experiment on A549 [10] was “Dose-dependent effect” each time. The 50% inhibitory concentration (IC50) worked out at 26.9 µM with THP-1 [4], 32.2 µM with Caco-2 [5], 51.4 µM in the experiment on PC-3 [7] and 42.2 µM with A549 [10]. Also, the inhibition of growth at 100 µM with A549 [8] was determined as 98%; with PC-3 [12], 70%; with Caco-2 [13], 68%; in the experiment with THP-1 [15], 90%.
